# Measured values: ChEMBL document CHEMBL5543167, “Design, Synthesis, and Biological Evaluation of Novel EGFR PROTACs Targeting C797S Mutation” (J Med Chem, 2024)
# Calls of active or inactive are those of the source. The calls are words filed in the database; no cut-off is given here.
# How the values were obtained:
# [1] = biological target: Protein cereblon/Epidermal growth factor receptor (Homo sapiens, UniProt P00533+Q96SW2, T790M/C797S/L858R); assay: PROTAC activity at CRBN/EGFR L858R/T790M/C797S mutant in human H1975-TM cells assessed as induction of EGFR degradation incubated for 24 hrs by Western blot analysis; type: cell-based
# Sequence of Protein cereblon/Epidermal growth factor receptor (Homo sapiens, UniProt P00533+Q96SW2, T790M/C797S/L858R) (P00533 25-1210 T790M/C797S/L858R limits assumed, stated change not applied): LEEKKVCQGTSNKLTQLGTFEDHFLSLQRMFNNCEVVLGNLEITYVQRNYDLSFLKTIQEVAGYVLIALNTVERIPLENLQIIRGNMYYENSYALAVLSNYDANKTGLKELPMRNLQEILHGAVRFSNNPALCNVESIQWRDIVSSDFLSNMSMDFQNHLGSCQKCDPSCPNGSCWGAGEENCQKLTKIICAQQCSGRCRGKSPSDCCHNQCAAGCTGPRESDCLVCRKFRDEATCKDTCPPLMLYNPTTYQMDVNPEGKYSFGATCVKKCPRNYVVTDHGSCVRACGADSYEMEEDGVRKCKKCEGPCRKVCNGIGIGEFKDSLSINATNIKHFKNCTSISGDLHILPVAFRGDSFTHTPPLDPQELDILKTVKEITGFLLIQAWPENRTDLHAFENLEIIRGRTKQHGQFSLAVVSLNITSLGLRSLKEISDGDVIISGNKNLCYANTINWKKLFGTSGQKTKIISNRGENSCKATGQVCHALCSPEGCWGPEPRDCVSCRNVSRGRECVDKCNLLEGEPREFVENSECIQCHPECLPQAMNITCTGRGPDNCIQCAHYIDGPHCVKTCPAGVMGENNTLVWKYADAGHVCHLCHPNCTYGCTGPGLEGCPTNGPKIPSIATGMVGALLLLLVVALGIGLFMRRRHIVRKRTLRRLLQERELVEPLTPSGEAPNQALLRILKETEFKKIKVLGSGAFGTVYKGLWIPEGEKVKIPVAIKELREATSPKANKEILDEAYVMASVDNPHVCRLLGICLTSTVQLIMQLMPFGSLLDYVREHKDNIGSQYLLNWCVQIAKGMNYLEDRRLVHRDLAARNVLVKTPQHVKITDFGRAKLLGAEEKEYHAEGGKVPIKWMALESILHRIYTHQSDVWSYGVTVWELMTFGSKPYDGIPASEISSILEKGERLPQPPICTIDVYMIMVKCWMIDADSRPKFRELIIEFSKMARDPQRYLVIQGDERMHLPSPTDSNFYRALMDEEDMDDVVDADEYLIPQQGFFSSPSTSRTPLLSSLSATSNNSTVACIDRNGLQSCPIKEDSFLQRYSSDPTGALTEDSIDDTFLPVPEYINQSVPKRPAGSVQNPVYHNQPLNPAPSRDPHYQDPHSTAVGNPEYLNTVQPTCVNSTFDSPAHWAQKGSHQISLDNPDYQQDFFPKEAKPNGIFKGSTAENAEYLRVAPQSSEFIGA
# Sequence of Protein cereblon/Epidermal growth factor receptor (Homo sapiens, UniProt P00533+Q96SW2, T790M/C797S/L858R) (Q96SW2 whole entry, stated change not applied): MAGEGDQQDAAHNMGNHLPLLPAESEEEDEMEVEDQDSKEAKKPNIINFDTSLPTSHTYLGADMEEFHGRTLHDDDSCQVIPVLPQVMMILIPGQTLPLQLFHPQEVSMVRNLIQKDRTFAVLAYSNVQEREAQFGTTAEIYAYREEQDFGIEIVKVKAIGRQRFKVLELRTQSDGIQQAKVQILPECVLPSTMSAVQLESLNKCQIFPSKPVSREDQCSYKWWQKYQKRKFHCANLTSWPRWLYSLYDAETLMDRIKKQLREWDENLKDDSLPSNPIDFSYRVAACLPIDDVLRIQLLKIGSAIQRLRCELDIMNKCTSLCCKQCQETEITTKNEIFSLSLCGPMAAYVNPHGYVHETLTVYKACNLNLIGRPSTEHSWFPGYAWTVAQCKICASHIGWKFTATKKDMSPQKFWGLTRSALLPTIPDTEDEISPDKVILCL
# [2] = test system: Protein cereblon/Epidermal growth factor receptor (Homo sapiens), P00533+Q96SW2 [L858R,T790M,C797S]; assay: PROTAC activity at CRBN/EGFR L858R/T790M/C797S mutant in human H1975-TM cells assessed as induction of EGFR degradation by measuring remaining activity at 100 nM incubated for 24 hrs by Western blot analysis (reference value: 100%); type: cell-based
# [3] = test system: Protein cereblon/Epidermal growth factor receptor (Homo sapiens), P00533+Q96SW2 [L858R,T790M,C797S]; assay: PROTAC activity at CRBN/EGFR L858R/T790M/C797S mutant in human H1975-TM cells assessed as induction of EGFR degradation by measuring remaining activity at 100 nM incubated for 12 hrs by Western blot analysis (reference value: 100%); type: cell-based
# [4] = test system: Protein cereblon/Epidermal growth factor receptor (Homo sapiens), P00533+Q96SW2 [L858R,T790M,C797S]; assay: PROTAC activity at CRBN/EGFR L858R/T790M/C797S mutant in human H1975-TM cells assessed as induction of EGFR degradation by measuring remaining activity at 100 nM preincubated for 24 hrs followed by compound washout and measured after 3 hrs by Western blot analysis (reference value: 100%); type: cell-based
# [5] = test system: Protein cereblon/Epidermal growth factor receptor (Homo sapiens), P00533+Q96SW2 [L858R,T790M,C797S]; assay: PROTAC activity at CRBN/EGFR L858R/T790M/C797S mutant in human H1975-TM cells assessed as induction of EGFR degradation by measuring remaining activity at 100 nM preincubated for 24 hrs followed by compound washout and measured after 12 hrs by Western blot analysis (reference value: 100%); type: cell-based
# [6] = test system: Protein cereblon/Epidermal growth factor receptor (Homo sapiens), P00533+Q96SW2 [L858R,T790M,C797S]; assay: PROTAC activity at CRBN/EGFR L858R/T790M/C797S mutant in human H1975-TM cells assessed as induction of EGFR degradation by measuring remaining activity at 50 nM preincubated with lenalidomide for 6 hrs followed by compound addition and measured after 24 hrs by Western blot analysis (reference value: 100%); type: cell-based
# [7] = test system: Protein cereblon/Epidermal growth factor receptor (Homo sapiens), P00533+Q96SW2 [UNDEFINED MUTATION]; assay: (§1) PROTAC activity at CRBN/EGFR exon 19 deletion/T790M/C797S mutant in human PC-9-TM cells assessed as induction of EGFR degradation incubated for 24 hrs by Western blot analysis; type: cell-based
# Sequence of Protein cereblon/Epidermal growth factor receptor (Homo sapiens), P00533+Q96SW2 [UNDEFINED MUTATION] (P00533 whole entry, looked up, stated change not applied): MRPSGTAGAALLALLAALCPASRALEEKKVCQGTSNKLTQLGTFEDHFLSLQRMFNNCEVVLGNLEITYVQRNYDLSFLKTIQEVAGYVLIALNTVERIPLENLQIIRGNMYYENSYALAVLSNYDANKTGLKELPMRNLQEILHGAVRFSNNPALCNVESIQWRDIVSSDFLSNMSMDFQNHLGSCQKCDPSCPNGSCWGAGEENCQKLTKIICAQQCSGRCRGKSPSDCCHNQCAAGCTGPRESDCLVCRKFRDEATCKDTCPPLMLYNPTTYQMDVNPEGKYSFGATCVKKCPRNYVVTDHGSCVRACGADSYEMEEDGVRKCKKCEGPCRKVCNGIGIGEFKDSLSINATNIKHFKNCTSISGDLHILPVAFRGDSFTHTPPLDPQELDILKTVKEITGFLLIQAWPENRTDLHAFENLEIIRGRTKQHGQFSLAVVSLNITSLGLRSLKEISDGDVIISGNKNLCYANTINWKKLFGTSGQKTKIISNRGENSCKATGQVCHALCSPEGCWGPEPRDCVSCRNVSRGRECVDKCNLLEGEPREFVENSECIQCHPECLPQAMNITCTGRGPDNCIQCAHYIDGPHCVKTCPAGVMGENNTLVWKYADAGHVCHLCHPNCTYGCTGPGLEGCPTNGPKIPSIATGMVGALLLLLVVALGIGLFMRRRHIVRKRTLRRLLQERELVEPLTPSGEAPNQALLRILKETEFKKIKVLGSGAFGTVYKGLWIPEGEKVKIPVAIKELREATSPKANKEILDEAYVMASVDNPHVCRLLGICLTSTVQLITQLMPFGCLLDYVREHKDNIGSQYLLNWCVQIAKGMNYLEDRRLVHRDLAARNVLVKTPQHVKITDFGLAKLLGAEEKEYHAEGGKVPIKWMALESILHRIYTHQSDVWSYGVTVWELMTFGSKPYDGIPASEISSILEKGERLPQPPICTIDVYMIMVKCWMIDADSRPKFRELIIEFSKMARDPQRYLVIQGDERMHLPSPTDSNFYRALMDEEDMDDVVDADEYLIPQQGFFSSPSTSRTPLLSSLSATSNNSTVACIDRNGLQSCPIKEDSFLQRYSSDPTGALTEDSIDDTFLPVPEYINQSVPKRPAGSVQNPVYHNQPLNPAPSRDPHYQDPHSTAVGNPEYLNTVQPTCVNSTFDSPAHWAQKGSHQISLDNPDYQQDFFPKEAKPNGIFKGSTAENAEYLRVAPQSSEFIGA
# Sequence of Protein cereblon/Epidermal growth factor receptor (Homo sapiens), P00533+Q96SW2 [UNDEFINED MUTATION] (Q96SW2 whole entry, looked up, stated change not applied): as the sequence (Q96SW2 whole entry, stated change not applied) above
# [8] = biological target: Protein cereblon/Epidermal growth factor receptor (Homo sapiens, UniProt P00533+Q96SW2); assay: as §1; type: cell-based
# Sequence of Protein cereblon/Epidermal growth factor receptor (Homo sapiens, UniProt P00533+Q96SW2) (P00533 whole entry, looked up, stated change not applied): as the sequence (P00533 whole entry, looked up, stated change not applied) above
# Sequence of Protein cereblon/Epidermal growth factor receptor (Homo sapiens, UniProt P00533+Q96SW2) (Q96SW2 whole entry, looked up, stated change not applied): as the sequence (Q96SW2 whole entry, stated change not applied) above
# H1975-TM [9] = assay: Inhibition of colony formation in human H1975-TM cells harboring EGFR L858R/T790M/C797S mutant at 3.7 to 100 nM incubated for 14 days by crystal violet staining based analysis; type: functional, cell-based; conditions: dose 3.7-100 nM, time 14.0 day
# H1975-TM [10] = assay: Induction of apoptosis in human H1975-TM cells harboring EGFR L858R/T790M/C797S mutant incubated for 24 hrs by Annexin V-FITC/PI staining based flow cytometric analysis; type: functional, cell-based; conditions: dose 33-100 nM
# [11] = Antitumor activity against human H1975-TM cells xenografted in BALB/c nude mouse assessed as tumor growth inhibition at 100 mg/kg, po administered once daily for 31 days relative to control; type: functional; conditions: 744 h, time 31 day, read-out: TGI
# [12] = Toxicity in BALB/c nude mouse xenografted with human H1975-TM cells assessed as heart lesions at 25 to 100 mg/kg, po administered once daily for 31 days by Hematoxylin and eosin staining based analysis; type: organism-based; conditions: in vivo, 744 h, dose 25-100 mg/kg, time 31 day
# [13] = Toxicity in BALB/c nude mouse xenografted with human H1975-TM cells assessed as liver lesions at 25 to 100 mg/kg, po administered once daily for 31 days by Hematoxylin and eosin staining based analysis; type: organism-based; conditions: in vivo, 744 h, dose 25-100 mg/kg, time 31 day
# [14] = Toxicity in BALB/c nude mouse xenografted with human H1975-TM cells assessed as spleen lesions at 25 to 100 mg/kg, po administered once daily for 31 days by Hematoxylin and eosin staining based analysis; type: organism-based; conditions: in vivo, 744 h, dose 25-100 mg/kg, time 31 day
# [15] = Toxicity in BALB/c nude mouse xenografted with human H1975-TM cells assessed as kidney lesions at 25 to 100 mg/kg, po administered once daily for 31 days by Hematoxylin and eosin staining based analysis; type: organism-based; conditions: in vivo, 744 h, dose 25-100 mg/kg, time 31 day
smiles,measurement,setting,value
CCS(=O)(=O)n1cc(-c2nc(Nc3ccc(N4CCN(CCCCCCC(=O)Nc5cccc6c5CN(C5CCC(=O)NC5=O)C6=O)CC4)cc3)ncc2C(F)(F)F)c2ccccc21 (stereo not given),DC50,[1],10.2 nM
same,Activity,[2],2.3%
same,Activity,[3],44.5%
same,Activity,[4],8.5%
same,Activity,[5],49.7%
same,Activity,[6],56.4%
same,Activity,[7],Dose-Dependent Effect
same,DC50,[8],36.5 nM
same,inhibition,H1975-TM [9],Active
same,Activity,H1975-TM [10],Dose-Dependent Effect
same,inhibition in vivo at 100 mg/kg,[11],66.4%
same,Activity,[12],Non-Toxic
same,Activity,[13],Non-Toxic
same,Activity,[14],Non-Toxic
same,Activity,[15],Non-Toxic
